Results on eight molecules are retold here after US20160280743A1, “BACTERIAL MUTANTS AND METHODS OF USE” (priority 2015, published 2016).

In experiment [1] the test system is P. aeruginosa PAO1Δ3 (Δ3). Particulars: for MIC Δ3 —: P. aeruginosa Δ3 without pore, 0.1 mM IPTG, LB, 37° C., 16 h.
Description: (§1) Susceptibilities of E. coli and P. aeruginosa cells to different classes of antibiotics were determined by two-fold broth dilution method [1] with following modifications. Cells were grown in Luria-Bertani (LB) broth (tryptone 10 g/L, yeast extract 5 g/L and NaCl 5 g/L) with appropriate selection markers as needed, at 37° C. with shaking at 200 rpm. When needed, at OD600˜0.3, either L-arabinose (final concentration 0.1%) or IPTG (final concentration 0.1 mM) were added to induce the expression of the pore and cells were further incubated until OD600 reached 1.0. MICs of various antimicrobial agents were measured in 96-well micro-titer plates. For this purpose, exponentially growing cells were inoculated at a density of 10^5 cells/ml into wells containing LB medium in the presence of two-fold increasing concentrations of drugs under investigation at constant inducer concentration of 0.1% arabinose for E. coli or 0.1 mM IPTG for P. aeruginosa strains. Cell growth was determined visually or using Spark 10M microplate reader (Tecan) after incubation of the micro-titer plates at 37° C. for 16 h.
(§2) For this purpose, induced cells were dispensed into 96-well microplates with LB medium containing two-fold dilutions of an antibiotic of interest and a respective concentration of an inducer.
In experiment [2] the test system is E. coli WT, WT-Pore, ΔTolC, ΔTolC-Pore. It is filed as cell-based, Escherichia coli. The settings on record: for Fold MIC change, Efflux, WT-Pore/ΔTolC-Pore / Fold MIC change, Efflux, WT/ΔTolC / Fold MIC change, OM barrier, WT/WT-Pore / Fold MIC change, OM barrier, ΔTolC/ΔTolC-Pore: E. coli.
In experiment [3] the test system is E. coli WT-Pore (GKCW101, FhuAΔC/Δ4L pore). In words: microbe, parasite or virus in culture. The settings on record: Escherichia coli.
Description: as §1, §2
Another experiment relates to E. coli GD102 (ΔTolC). The settings on record: for MIC GD102 (ΔTolC) —: E. coli ΔTolC without pore, 0.1% arabinose, LB, 37° C., 16 h.
Experiment [4] relates to E. coli BW 25113 (WT). In words: microbe, parasite or virus in culture. Particulars: Escherichia coli.
Description: as §1, §2
The subject of experiment [5] is P. aeruginosa PAO1, PAO1-Pore, Δ3, Δ3-Pore. In words: Fold MIC change between P. aeruginosa strains (OM barrier, efflux). In kind it is cell-based, Pseudomonas aeruginosa. Particulars: for Fold MIC change, Efflux, PAO1-Pore/Δ3-Pore / Fold MIC change, Efflux, PAO1/Δ3 / Fold MIC change, OM barrier, PAO1/PAO1-Pore / Fold MIC change, OM barrier, Δ3/Δ3-Pore: P. aeruginosa.

The test system of experiment [6] is P. aeruginosa PAO1-Pore (GKCW115, FhuAΔC/Δ4L pore). In words: MIC, two-fold broth dilution, P. aeruginosa PAO1-Pore. Particulars: for MIC: Pseudomonas aeruginosa; for MIC PAO1 Pore: P. aeruginosa PAO1-Pore, 0.1 mM IPTG, LB, 37° C., 16 h. On the technique in general: Broth dilution looks for growth in wells or tubes with falling amounts of substance.
Description: as §1, §2
Experiment [7] has as its system P. aeruginosa Δ3-Pore (GKCW116, FhuAΔC/Δ4L pore). In words: MIC, two-fold broth dilution, P. aeruginosa Δ3-Pore. The settings on record: for MIC Δ3 Pore: P. aeruginosa Δ3-Pore, 0.1 mM IPTG, LB, 37° C., 16 h.
Description: as §1, §2
The test system of experiment [8] is P. aeruginosa PAO1. In words: microbe, parasite or virus in culture. The settings on record: Pseudomonas aeruginosa, PAO1, 16 h, read-out: MIC PAO1 —.
Description: as §1, §2
The subject of experiment [9] is E. coli ΔTolC-Pore (GKCW103, FhuAΔC/Δ4L pore). Particulars: 0.1% arabinose, LB, 37° C., 16 h.
Description: as §1, §2
For experiment [10], the system named is P. aeruginosa PAO1. Particulars: P. aeruginosa PAO1 without pore; 0.1 mM IPTG; LB, 37° C., 16 h.
Description: as §1, §2
Experiment [11] deals with E. coli BW 25113 (WT). The settings on record: E. coli WT without pore; 0.1% arabinose; LB, 37° C., 16 h.
Description: as §1, §2
The subject of experiment [12] is E. coli WT-Pore (GKCW101, FhuAΔC/Δ4L pore). Particulars: 0.1% arabinose, LB, 37° C., 16 h.
Description: as §1, §2
[13] abbreviates: 16 h, read-out: MIC BW 25113 (WT) Pore.
Where [14] appears, read: 16 h, read-out: MIC BW 25113 (WT) —.

Converted amounts (≈) assume the structure as drawn. Where two headings read alike, the source gives them in different places. Some results are limits rather than exact numbers.

Description for E. coli GD102 (ΔTolC): as §1, §2

Consider `CC[C@H]1OC(=O)[C@H](C)[C@@H](O[C@H]2C[C@@](C)(OC)[C@@H](O)[C@H](C)O2)[C@H](C)[C@@H](O[C@@H]2O[C@H](C)C[C@H](N(C)C)[C@H]2O)[C@](C)(O)C[C@@H](C)C(=O)[C@H](C)[C@@H](O)[C@]1(C)O` [Erythromycin], for which the “MIC in P. aeruginosa Δ3 cells” value in [1] (FIG. 5) was found to be 21.8 µM (≈ 16 µg/mL). For the same molecule, the “MIC Δ3 —” value in experiment [1] came to 16 µg/mL (≈ 21.8 µM). In addition, the “Additional decrease of MIC in permeabilized ΔTolC-Pore cells” value in [2] (FIG. 4A) is recorded as 16 fold. Further, in [2] (FIG. 4A), the “Difference of MICs in E. coli WT and ΔTolC cells” value was determined as 16 fold. In addition, the “Reduction of MIC by permeabilization of the outer membrane in WT-Pore E. coli” value in experiment [2] (FIG. 4A) turned out to be 64 fold. In [2] (FIG. 4A), the “Total potentiation (WT to ΔTolC-Pore)” value was 512 fold. Moreover, the MIC in experiment [3] (setting [13]) was 4 µg/mL; in experiment [3] (read-out: MIC in E. coli WT-Pore cells), 1.4 µM; in the experiment with E. coli BW 25113 (WT) [4] (setting [14]), 64 µg/mL; in the experiment with E. coli BW 25113 (WT) [4] (read-out: MIC in E. coli WT cells), 87 µM; in experiment [6] (PAO1, read-out: MIC in P. aeruginosa PAO1-Pore cells), 1.4 µM. Moreover, the “MIC GD102 (ΔTolC) —” value against E. coli GD102 (ΔTolC) is 4 µg/mL (≈ 5.45 µM). The “MIC in E. coli ΔTolC cells” value in the experiment on E. coli GD102 (ΔTolC) (unchanged in the range of 0.001-0.5% arabinose (FIG. 4A)) came to 5.5 µM (≈ 4.04 µg/mL). In addition, the “Change of MIC on inactivation of the three major efflux pumps (PAO1 vs Δ3)” value in [5] was determined as 8 fold. Further, the “MIC in P. aeruginosa Δ3-Pore cells” value in [7] (induced, plateau with increasing IPTG (FIG. 5)) worked out at 0.085 µM (≈ 0.0624 µg/mL).
Regarding `CO[C@H]1/C=C/O[C@@]2(C)Oc3c(C)c(O)c4c(O)c(c(/C=N/N5CCN(C)CC5)c(O)c4c3C2=O)NC(=O)/C(C)=C\C=C\[C@H](C)[C@H](O)[C@@H](C)[C@@H](O)[C@@H](C)[C@H](OC(C)=O)[C@@H]1C` [Rifampicin], the “MIC Δ3 —” value in [1] stood at 16 µg/mL (≈ 19.4 µM). Also, the MIC was 0.25 µg/mL in experiment [3] (setting [13]); 16 µg/mL (≈ 19.4 µM) in the experiment with P. aeruginosa PAO1 [8]; 4 µg/mL with E. coli BW 25113 (WT) [4] (setting [14]); 0.5 µg/mL in [6] (PAO1, 16 h, read-out: MIC PAO1 Pore). Besides, the “MIC GD102 (ΔTolC) —” value against E. coli GD102 (ΔTolC) was determined as 4 µg/mL (≈ 4.86 µM). Besides, the “MIC GD102 (ΔTolC) Pore” value in experiment [9] is 0.25 µg/mL (≈ 0.304 µM). Besides, the “MIC Δ3 Pore” value in [7] is 0.5 µg/mL (≈ 0.608 µM).
Consider `CCCCCCCCCCCCOS(=O)(=O)[O-].[Na+]` [SDS], for which the “MIC Δ3 —” value in [1] turned out to be 10000 µg/mL. In experiment [2], the “Fold MIC change, Efflux, WT-Pore/ΔTolC-Pore” value is given as 2000 fold; the “Fold MIC change, Efflux, WT/ΔTolC” value is given as 2000 fold; the “Fold MIC change, OM barrier, WT/WT-Pore” value was 1 fold; the “Fold MIC change, OM barrier, ΔTolC/ΔTolC-Pore” value amounted to 1 fold. In the experiment on P. aeruginosa PAO1 [10], the “MIC PAO1 —” value is more than 10000 µg/mL. Besides, in the experiment with E. coli BW 25113 (WT) [11], the “MIC BW 25113 (WT) —” value came out at 10000 µg/mL. Further, the “MIC GD102 (ΔTolC) —” value in the experiment with E. coli GD102 (ΔTolC) is 5 µg/mL. In addition, in experiment [12], the “MIC BW 25113 (WT) Pore” value was 10000 µg/mL. Also, in experiment [5], the “Fold MIC change, Efflux, PAO1-Pore/Δ3-Pore” value is recorded as 64 fold; the “Fold MIC change, Efflux, PAO1/Δ3” value is listed as “≧2 fold”; the “Fold MIC change, OM barrier, PAO1/PAO1-Pore” value is “≧2 fold”; the “Fold MIC change, OM barrier, Δ3/Δ3-Pore” value came out at 64 fold. In [6], the “MIC PAO1 Pore” value is 10000 µg/mL. For the same molecule, the “MIC GD102 (ΔTolC) Pore” value in [9] came out at 5 µg/mL. In addition, in experiment [7], the “MIC Δ3 Pore” value amounted to 156.3 µg/mL.
Turning to Coumermycin, in experiment [1], the “MIC Δ3 —” value amounted to 16 µg/mL. For the same molecule, in experiment [2], the “Fold MIC change, Efflux, WT-Pore/ΔTolC-Pore” value was found to be 4 fold; the “Fold MIC change, Efflux, WT/ΔTolC” value amounted to 1 fold; the “Fold MIC change, OM barrier, WT/WT-Pore” value came out at 4 fold; the “Fold MIC change, OM barrier, ΔTolC/ΔTolC-Pore” value was 16 fold. In the experiment with P. aeruginosa PAO1 [10], the “MIC PAO1 —” value came out at 16 µg/mL. Further, the “MIC BW 25113 (WT) —” value against E. coli BW 25113 (WT) [11] is 8 µg/mL. For the same molecule, the “MIC GD102 (ΔTolC) —” value in the experiment with E. coli GD102 (ΔTolC) amounted to 8 µg/mL. Further, the “MIC BW 25113 (WT) Pore” value in experiment [12] is 2 µg/mL. In [5], the “Fold MIC change, Efflux, PAO1-Pore/Δ3-Pore” value is 1 fold; the “Fold MIC change, Efflux, PAO1/Δ3” value came out at 1 fold; the “Fold MIC change, OM barrier, PAO1/PAO1-Pore” value came out at 16 fold; the “Fold MIC change, OM barrier, Δ3/Δ3-Pore” value turned out to be 16 fold. The “MIC PAO1 Pore” value in experiment [6] was 1 µg/mL. Besides, the “MIC GD102 (ΔTolC) Pore” value in [9] was 0.5 µg/mL. Also, the “MIC Δ3 Pore” value in experiment [7] is 1 µg/mL.
For the molecule Gentamicin, in experiment [2], the “Fold MIC change, Efflux, WT-Pore/ΔTolC-Pore” value is reported as 0.5 fold; the “Fold MIC change, Efflux, WT/ΔTolC” value is reported as 1 fold; the “Fold MIC change, OM barrier, WT/WT-Pore” value was found to be 2 fold; the “Fold MIC change, OM barrier, ΔTolC/ΔTolC-Pore” value amounted to 1 fold. Further, in the experiment with E. coli BW 25113 (WT) [11], the “MIC BW 25113 (WT) —” value is 4 µg/mL. Also, the “MIC GD102 (ΔTolC) —” value in the experiment with E. coli GD102 (ΔTolC) stood at 4 µg/mL. In addition, the “MIC BW 25113 (WT) Pore” value in [12] was 2 µg/mL. The “MIC GD102 (ΔTolC) Pore” value in experiment [9] came out at 4 µg/mL.
With Tobramycin, in experiment [1], the “MIC Δ3 —” value was 0.5 µg/mL. For the same molecule, the “MIC PAO1 —” value against P. aeruginosa PAO1 [10] worked out at 2 µg/mL. In addition, in [5], the “Fold MIC change, Efflux, PAO1-Pore/Δ3-Pore” value amounted to 2 fold; the “Fold MIC change, Efflux, PAO1/Δ3” value was 4 fold; the “Fold MIC change, OM barrier, PAO1/PAO1-Pore” value came out at 2 fold; the “Fold MIC change, OM barrier, Δ3/Δ3-Pore” value came out at 1 fold. Besides, the “MIC PAO1 Pore” value in experiment [6] was determined as 1 µg/mL. In addition, the “MIC Δ3 Pore” value in experiment [7] stood at 0.5 µg/mL.
Triclosan: the “MIC Δ3 —” value in experiment [1] came out at 32 µg/mL. In addition, the “MIC PAO1 —” value in the experiment with P. aeruginosa PAO1 [10] is more than 1024 µg/mL. In addition, in the experiment with E. coli BW 25113 (WT) [11], the “MIC BW 25113 (WT) —” value is 0.031 µg/mL. In the experiment on E. coli GD102 (ΔTolC), the “MIC GD102 (ΔTolC) —” value came to 0.004 µg/mL. In addition, the “MIC BW 25113 (WT) Pore” value in experiment [12] turned out to be 0.031 µg/mL. Moreover, the “MIC PAO1 Pore” value in [6] is more than 1024 µg/mL. In addition, the “MIC GD102 (ΔTolC) Pore” value in experiment [9] is 0.002 µg/mL. Moreover, in [7], the “MIC Δ3 Pore” value was determined as 8 µg/mL.
Turning to Virginiamycin, in experiment [2], the “Fold MIC change, Efflux, WT-Pore/ΔTolC-Pore” value was 512 fold; the “Fold MIC change, Efflux, WT/ΔTolC” value is given as “≧64 fold”; the “Fold MIC change, OM barrier, WT/WT-Pore” value is “≧2 fold”; the “Fold MIC change, OM barrier, ΔTolC/ΔTolC-Pore” value was 16 fold. The “MIC BW 25113 (WT) —” value against E. coli BW 25113 (WT) [11] is more than 256 µg/mL. For the same molecule, the “MIC GD102 (ΔTolC) —” value against E. coli GD102 (ΔTolC) is 8 µg/mL. In addition, the “MIC BW 25113 (WT) Pore” value in experiment [12] is 256 µg/mL. For the same molecule, the “MIC GD102 (ΔTolC) Pore” value in [9] was 0.5 µg/mL.
